Laboratory results published in patent US20220356174A1, “PYRIDIN-2-ONE COMPOUNDS USEFUL AS SMARCA2 ANTAGONISTS” (Epizyme, Inc., priority 2018, published 2022).
Where two headings read alike, the source gives them in different places. Values belong to the compound of their own block, whether it stands above or below them.

How the values were obtained:
[1] = biological target: T1, FL-SMARCA2 (full-length human SMARCA2 isoform 1) (Homo sapiens, UniProt P51531); assay: SMARCA2 ATPase activity assay (ADP-Glo, chicken mononucleosome substrate); format: biochemical; details: ATP 250 uM
T1 construct: FLAG tag (YKDDDDK) (C); made in house; host or cells: Sf21 insect cells (baculovirus, pFastBacI)
T1 sequence (P51531 with tags, fused parts or gaps): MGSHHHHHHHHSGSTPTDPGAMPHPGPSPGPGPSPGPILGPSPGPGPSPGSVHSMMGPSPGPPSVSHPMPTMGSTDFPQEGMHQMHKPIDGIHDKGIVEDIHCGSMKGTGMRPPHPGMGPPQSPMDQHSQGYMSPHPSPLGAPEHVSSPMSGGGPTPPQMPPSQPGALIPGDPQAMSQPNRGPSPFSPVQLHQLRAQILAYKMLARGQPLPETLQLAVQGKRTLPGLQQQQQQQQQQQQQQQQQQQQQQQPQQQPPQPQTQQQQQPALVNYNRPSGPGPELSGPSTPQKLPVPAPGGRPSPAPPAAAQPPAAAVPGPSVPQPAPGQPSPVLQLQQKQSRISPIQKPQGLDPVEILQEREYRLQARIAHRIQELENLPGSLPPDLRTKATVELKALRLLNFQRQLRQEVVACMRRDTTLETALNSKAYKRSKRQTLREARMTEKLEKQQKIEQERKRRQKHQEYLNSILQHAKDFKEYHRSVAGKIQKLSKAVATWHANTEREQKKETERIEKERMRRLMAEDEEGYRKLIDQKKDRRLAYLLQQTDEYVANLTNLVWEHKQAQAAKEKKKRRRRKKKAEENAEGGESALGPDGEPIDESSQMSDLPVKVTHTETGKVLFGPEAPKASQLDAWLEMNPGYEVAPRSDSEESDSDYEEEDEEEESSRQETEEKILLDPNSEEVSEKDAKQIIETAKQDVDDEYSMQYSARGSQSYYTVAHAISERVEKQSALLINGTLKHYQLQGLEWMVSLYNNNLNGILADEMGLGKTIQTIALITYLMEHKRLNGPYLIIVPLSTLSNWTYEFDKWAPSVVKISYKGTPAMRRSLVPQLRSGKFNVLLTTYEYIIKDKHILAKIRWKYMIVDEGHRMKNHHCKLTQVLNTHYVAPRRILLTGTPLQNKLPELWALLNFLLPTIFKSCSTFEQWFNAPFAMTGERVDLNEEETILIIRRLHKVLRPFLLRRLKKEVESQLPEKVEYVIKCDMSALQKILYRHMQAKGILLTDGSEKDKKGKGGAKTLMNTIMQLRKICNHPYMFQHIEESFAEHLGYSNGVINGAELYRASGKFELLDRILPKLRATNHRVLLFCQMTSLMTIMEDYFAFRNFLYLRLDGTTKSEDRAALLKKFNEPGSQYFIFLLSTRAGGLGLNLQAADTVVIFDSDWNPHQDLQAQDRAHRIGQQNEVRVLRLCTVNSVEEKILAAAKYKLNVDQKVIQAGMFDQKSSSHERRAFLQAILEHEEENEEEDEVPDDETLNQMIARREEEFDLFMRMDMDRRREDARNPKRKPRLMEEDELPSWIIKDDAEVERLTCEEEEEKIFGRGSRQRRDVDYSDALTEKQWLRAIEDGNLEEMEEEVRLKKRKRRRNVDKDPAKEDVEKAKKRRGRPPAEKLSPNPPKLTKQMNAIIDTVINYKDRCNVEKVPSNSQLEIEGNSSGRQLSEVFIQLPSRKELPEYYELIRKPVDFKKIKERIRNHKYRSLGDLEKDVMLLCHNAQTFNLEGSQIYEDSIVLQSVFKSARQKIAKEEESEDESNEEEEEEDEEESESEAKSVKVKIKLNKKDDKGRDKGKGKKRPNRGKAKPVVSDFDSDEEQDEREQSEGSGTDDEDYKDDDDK
Text: Molecular Biology: Full-length human SMARCA2 isoform 1 (P51531) transcript clone was amplified from a cDNA library incorporating an N-terminal HIS tag ([…]) fused directly to Ser2 of SMARCA2 and a C-FLAG tag (YKDDDDK) fused directly to Glu1590 of SMARCA2. The amplified gene was subcloned into pFastBacI (Life Technologies).
Protein Expression: Recombinant baculovirus were generated and protein over-expression was accomplished by infecting exponentially growing Sf21 insect cell culture at 1.24×10^6 cell/ml with an MOI of 0.1. Infections were carried out for 76 hours, harvested by centrifugation, and stored at −80° C. for purification.
Expressed full-length SMARCA2 was purified from cell paste by FLAG affinity chromatography followed by anion exchange chromatography. The protein was dialyzed into a storage buffer containing 25 mM HEPES, 300 mM KCl, 10% Glycerol, pH 7.9, 1 mM TCEP and 0.01% Tween-20. The purity of the protein was measured as 74% using micro-capillary based gel electrophoresis.

[2] = biological target: FL-SMARCA4 (Homo sapiens, UniProt P51532); assay: SMARCA4 ATPase activity assay (ADP-Glo, chicken mononucleosome substrate)
Sequence of FL-SMARCA4 (P51532 whole entry): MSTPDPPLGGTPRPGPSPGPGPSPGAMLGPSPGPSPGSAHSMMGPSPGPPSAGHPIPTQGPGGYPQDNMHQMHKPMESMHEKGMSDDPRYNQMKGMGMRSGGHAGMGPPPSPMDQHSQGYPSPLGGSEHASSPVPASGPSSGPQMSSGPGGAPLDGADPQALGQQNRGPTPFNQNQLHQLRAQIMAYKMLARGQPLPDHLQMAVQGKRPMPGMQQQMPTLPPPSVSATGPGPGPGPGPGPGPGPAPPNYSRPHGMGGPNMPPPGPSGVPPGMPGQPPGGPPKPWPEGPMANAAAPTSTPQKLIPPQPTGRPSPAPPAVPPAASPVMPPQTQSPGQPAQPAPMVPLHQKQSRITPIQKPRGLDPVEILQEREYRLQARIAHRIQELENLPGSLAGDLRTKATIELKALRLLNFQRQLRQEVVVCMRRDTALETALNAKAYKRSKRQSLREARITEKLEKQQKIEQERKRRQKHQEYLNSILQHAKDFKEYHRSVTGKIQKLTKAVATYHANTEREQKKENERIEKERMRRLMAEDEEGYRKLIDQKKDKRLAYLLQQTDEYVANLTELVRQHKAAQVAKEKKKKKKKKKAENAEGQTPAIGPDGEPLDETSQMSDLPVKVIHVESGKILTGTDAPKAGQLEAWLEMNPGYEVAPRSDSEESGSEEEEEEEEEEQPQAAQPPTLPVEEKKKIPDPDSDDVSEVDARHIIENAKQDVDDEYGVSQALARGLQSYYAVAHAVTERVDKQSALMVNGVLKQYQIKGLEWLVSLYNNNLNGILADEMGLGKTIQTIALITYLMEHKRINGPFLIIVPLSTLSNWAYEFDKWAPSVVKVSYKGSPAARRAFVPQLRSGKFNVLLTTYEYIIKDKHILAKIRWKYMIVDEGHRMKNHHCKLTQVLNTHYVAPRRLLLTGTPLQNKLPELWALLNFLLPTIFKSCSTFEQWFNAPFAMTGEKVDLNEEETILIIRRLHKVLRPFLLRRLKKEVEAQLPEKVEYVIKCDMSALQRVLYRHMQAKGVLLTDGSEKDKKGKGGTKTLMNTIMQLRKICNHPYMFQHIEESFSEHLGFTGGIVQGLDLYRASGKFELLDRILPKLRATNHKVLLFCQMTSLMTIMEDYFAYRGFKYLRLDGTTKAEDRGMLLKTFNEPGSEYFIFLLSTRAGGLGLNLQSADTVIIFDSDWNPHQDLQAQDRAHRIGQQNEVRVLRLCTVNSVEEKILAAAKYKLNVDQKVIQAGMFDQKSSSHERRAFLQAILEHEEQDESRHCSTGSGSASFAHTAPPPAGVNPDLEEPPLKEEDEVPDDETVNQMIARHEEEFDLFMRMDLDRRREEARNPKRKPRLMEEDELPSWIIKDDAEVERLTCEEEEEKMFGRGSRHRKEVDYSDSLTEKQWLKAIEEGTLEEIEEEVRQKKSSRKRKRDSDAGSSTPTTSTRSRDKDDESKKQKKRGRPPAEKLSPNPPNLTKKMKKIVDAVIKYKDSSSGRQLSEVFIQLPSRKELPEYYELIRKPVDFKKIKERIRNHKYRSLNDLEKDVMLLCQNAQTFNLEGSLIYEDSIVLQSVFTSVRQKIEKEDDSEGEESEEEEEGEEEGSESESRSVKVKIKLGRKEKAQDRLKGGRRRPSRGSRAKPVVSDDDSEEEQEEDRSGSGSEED

[3] = Table 3b.1, SMARCA2 5 nM, mononucleosome 10 nM
[4] = FL-SMARCA4 IC50, Table 3b.2, SMARCA4 5 nM, ATP 250 uM, mononucleosome 10 nM
[5] = Table 3c.1, ATPase assay, enzyme 5 nM, chicken mononucleosome 10 nM, 30 min preincubation
[6] = FL-SMARCA4 IC>50, Table 3c.2, ATPase assay, enzyme 5 nM, ATP 250 uM, chicken mononucleosome 10 nM, 30 min preincubation
[7] = Table 3.1, ATPase assay, enzyme 5 nM, chicken mononucleosome 10 nM, 30 min preincubation
[8] = FL-SMARCA4 IC50, Table 3.2, ATPase assay, enzyme 5 nM, ATP 250 uM, chicken mononucleosome 10 nM, 30 min preincubation
[9] = Table 3d.1, ATPase assay, enzyme 5 nM, chicken mononucleosome 10 nM, 30 min preincubation, read-out: FL-SMARCA2 IC>50
[10] = Table 3a.1, SMARCA2 5 nM, mononucleosome 10 nM
[11] = FL-SMARCA4 IC50, Table 3a.2, SMARCA4 5 nM, ATP 250 uM, mononucleosome 10 nM

SMILES: N#Cc1cc(C(=O)Nc2cc(F)c(=O)n(CCF)c2)ccc1Cl [Compound 18b]
IC50 [1, 3]: 0.917 µM | IC50 [2, 4]: 5.34 µM

SMILES: O=C(Nc1cc(-c2cnco2)c(=O)n(CC(F)F)c1)c1sc(C(F)(F)F)cc1Cl [Compound 18c]
IC50 [1, 5]: > 50 µM | IC50 [2, 6]: > 50 µM

SMILES: CCn1cc(NC(=O)c2ccc(Br)n2C)ccc1=O [Compound 19]
IC50 [1, 7]: > 50 µM | IC50 [2, 8]: > 50 µM

SMILES: N#Cc1ccc(C(=O)Nc2cc(F)c(=O)n(CCF)c2)cc1Cl [Compound 19b]
IC50 [1, 3]: 2.02 µM | IC50 [2, 4]: 12.6 µM

SMILES: Cn1ccc(-c2cc(NC(=O)c3sc(C(F)(F)F)cc3Cl)cn(CC(F)F)c2=O)n1 [Compound 19c]
IC50 [1, 5]: > 50 µM | IC50 [2, 6]: > 50 µM

SMILES: CCn1nc(NC(=O)c2cc(Cl)c(Cl)s2)ccc1=O [Compound 19d]
IC50 [1, 9]: > 50 µM | IC50 ([2]; FL-SMARCA4 IC50): > 50 µM

SMILES: CCn1cc(NC(=O)c2ccc(Cl)o2)ccc1=O [Compound 20]
IC50 [1, 7]: > 50 µM | IC50 [2, 8]: > 50 µM

SMILES: CCn1cc(NC(=O)c2cn3ccccc3n2)ccc1=O [Compound 20a]
IC50 [1, 10]: > 50 µM | IC50 [2, 11]: > 50 µM

SMILES: N#Cc1ccc(C(=O)Nc2cc(F)c(=O)n(CCF)c2)cc1C#N [Compound 20b]
IC50 [1, 3]: 2.46 µM | IC50 [2, 4]: 11.5 µM

SMILES: O=C(Nc1cc(-c2cn[nH]c2)c(=O)n(CC(F)F)c1)c1sc(C(F)(F)F)cc1Cl [Compound 20c]
IC50 [1, 5]: > 50 µM | IC50 [2, 6]: > 50 µM

SMILES: CCn1nc(NC(=O)c2cnc(Cl)s2)ccc1=O [Compound 20d]
IC50 [1, 9]: 7.37 µM | IC50 ([2]; FL-SMARCA4 IC50): 28.9 µM

SMILES: CCn1cc(NC(=O)c2ccc(F)s2)ccc1=O [Compound 26]
IC50 [1, 7]: 19.6 µM | IC50 [2, 8]: > 50 µM

The remaining lines, values ahead:

IC50 [1, 10]: > 50 µM | IC50 [2, 11]: > 50 µM
SMILES: CCn1cc(NC(=O)c2cn3cccnc3n2)ccc1=O [Compound 21a]

IC50 [1, 3]: > 50 µM | IC50 [2, 4]: > 50 µM
SMILES: CN(C)C(=O)c1ccc(C(=O)Nc2cc(F)c(=O)n(CCF)c2)cc1 [Compound 21b]

IC50 [1, 9]: 16.7 µM | IC50 ([2]; FL-SMARCA4 IC50): > 50 µM
SMILES: O=C(Nc1ccc(=O)n(CC(F)(F)F)n1)c1cc(Cl)c(Cl)s1 [Compound 21d]

IC50 [1, 10]: > 50 µM | IC50 [2, 11]: > 50 µM
SMILES: CCn1cc(NC(=O)c2c[nH]c3ccccc23)ccc1=O [Compound 22a]

IC50 [1, 3]: > 50 µM | IC50 [2, 4]: > 50 µM
SMILES: CC(=O)Nc1ccc(C(=O)Nc2cc(F)c(=O)n(CCF)c2)cc1Cl [Compound 22b]

IC50 [1, 9]: 6.38 µM | IC50 ([2]; FL-SMARCA4 IC50): 28.9 µM
SMILES: CCCn1nc(NC(=O)c2cc(Cl)c(Cl)s2)ccc1=O [Compound 22d]

IC50 [1, 10]: > 50 µM | IC50 [2, 11]: > 50 µM
SMILES: CCn1cc(NC(=O)c2cnc3ncccn23)ccc1=O [Compound 23a]

IC50 [1, 3]: > 50 µM | IC50 [2, 4]: > 50 µM
SMILES: NS(=O)(=O)c1ccc(C(=O)Nc2cc(F)c(=O)n(CCF)c2)cc1Cl [Compound 23b]

IC50 [1, 5]: 0.173 µM | IC50 [2, 6]: 0.219 µM
SMILES: O=C(Nc1cc(F)c(=O)n(CC(F)F)c1)c1cc(C#Cc2ccncc2)cs1 [Compound 23c]

IC50 [1, 9]: 12.5 µM | IC50 ([2]; FL-SMARCA4 IC50): 15.3 µM
SMILES: O=C(Nc1ccc(=O)n(CC(F)(F)F)n1)c1cnc(Cl)s1 [Compound 23d]

IC50 [1, 10]: > 50 µM | IC50 [2, 11]: > 50 µM
SMILES: CCn1cc(NC(=O)c2c[nH]c3c(Cl)cccc23)ccc1=O [Compound 24a]

IC50 [1, 5]: 11.3 µM | IC50 [2, 6]: 38.7 µM
SMILES: O=C(Nc1cc(F)c(=O)n(CC(F)F)c1)c1cc(CC(F)(F)F)c(Cl)s1 [Compound 24c]

IC50 [1, 9]: 18.4 µM | IC50 ([2]; FL-SMARCA4 IC50): > 50 µM
SMILES: CCn1cc(NC(=O)c2cc(Cl)c(Cl)s2)c(Cl)cc1=O [Compound 24d]

IC50 [1, 10]: > 50 µM | IC50 [2, 11]: > 50 µM
SMILES: CCn1cc(NC(=O)c2cccc(Cl)n2)ccc1=O [Compound 25a]

IC50 [1, 9]: > 50 µM | IC50 ([2]; FL-SMARCA4 IC50): > 50 µM
SMILES: CCn1c(C)c(NC(=O)c2cc(Cl)c(Cl)s2)ccc1=O [Compound 25d]

IC50 [1, 10]: > 50 µM | IC50 [2, 11]: > 50 µM
SMILES: CCn1cc(NC(=O)c2ccc3ccccc3n2)ccc1=O [Compound 26a]

IC50 [1, 5]: 5.41 µM | IC50 [2, 6]: 6.27 µM
SMILES: O=C(Nc1cc(C#CC(F)(F)F)c(=O)n(CC(F)F)c1)c1cc(F)c(Cl)s1 [Compound 26c]

IC50 [1, 9]: > 50 µM | IC50 ([2]; FL-SMARCA4 IC50): > 50 µM
SMILES: CCn1cc(NC(=O)c2cc(Cl)c(Cl)s2)c(C)cc1=O [Compound 26d]

IC50 [1, 10]: > 50 µM | IC50 [2, 11]: > 50 µM
SMILES: CCn1cc(NC(=O)c2cn(C)c3c(Cl)cccc23)ccc1=O [Compound 27a]

IC50 [1, 5]: > 50 µM | IC50 [2, 6]: > 50 µM
SMILES: Cn1cnc(-c2cc(NC(=O)c3sc(C(F)(F)F)cc3Cl)cn(CC(F)F)c2=O)c1 [Compound 27c]
